# Experimental data from patent US6706663B2, “Herbicidal 3-heterocyclic substituted benzisothiazole and benzisoxazole compounds” (Wyeth, priority 2000, dated 2004).
# Experiments:
# [1] = test system: IPOHE (Ipomoea hederacea); assay: Postemergence herbicidal evaluation; assay type: in vivo, (L.) Jacq.; settings: postemergence
# Procedure, shortened: (§1)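 Visual 0–9 injury scores versus control plants, covering stand, vigour, malformation, size, chlorosis and general appearance, taken four to five weeks post-spray and averaged over replicate tests. Plants were sprayed at roughly two weeks old and held on greenhouse benches.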
# [2] = test system: CHEAL (Chenopodium album); assay: Postemergence herbicidal evaluation; assay type: in vivo, L.; settings: postemergence
# Procedure, shortened: as §1
# [3] = test system: AMBEL (Ambrosia artemisifolia); assay: Postemergence herbicidal evaluation; assay type: in vivo, L.; settings: postemergence
# Procedure, shortened: as §1
# [4] = test system: CASOB (Cassia obtusifolia); assay: Postemergence herbicidal evaluation; assay type: in vivo, L.; settings: postemergence
# Procedure, shortened: as §1
# [5] = test system: ORYSAT (Rice, Tebonnet); assay: Postemergence herbicidal evaluation; assay type: in vivo, Oryza sativa, (L.) Tebonnet; settings: postemergence
# Procedure, shortened: as §1
# [6] = test system: CHEAL (Chenopodium album); assay: Preemergence herbicidal evaluation; assay type: in vivo, L.; settings: rated 4-5 weeks after treatment
# Procedure, shortened: (§2)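 Visual 0-9 rating versus untreated control, taken four to five weeks post-treatment, scoring stand, vigor, malformation, size, chlorosis and overall appearance. Compound applied as aqueous acetone spray to freshly seeded soil cups, then kept under standard greenhouse care.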
# [7] = test system: AMBEL (Ambrosia artemisifolia); assay: Preemergence herbicidal evaluation; assay type: in vivo, L.; settings: rated 4-5 weeks after treatment
# Procedure, shortened: as §2
# [8] = test system: CASOB (Cassia obtusifolia); assay: Preemergence herbicidal evaluation; assay type: in vivo, L.; settings: rated 4-5 weeks after treatment
# Procedure, shortened: as §2
# [9] = test system: IPOHE (Ipomoea hederacea); assay: Preemergence herbicidal evaluation; assay type: in vivo, (L.) Jacq.; settings: rated 4-5 weeks after treatment
# [10] = test system: ABUTH (Abutilon theophrasti); assay: Postemergence herbicidal evaluation; assay type: in vivo, Medic.; settings: postemergence
# Procedure, shortened: as §1
# [11] = test system: ZEAMX (Corn, Field); assay: Preemergence herbicidal evaluation; assay type: in vivo, Zea mays, L.; settings: rated 4-5 weeks after treatment
# [12] = test system: ORYSAT (Rice, Tebonnet); assay: Flooded paddy, post-transplant rice tolerance; assay type: in vivo, Oryza sativa, (L.) Tebonnet; settings: flooded paddy, post-transplant rice, rated 3-4 weeks after treatment, 0-9 rating scale
# Procedure, shortened: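 Visual 0–9 injury rating against a control, covering stand, vigor, malformation, size, chlorosis and overall appearance. Treatment was post-transplant onto flooded containers (water 1.5–3 cm deep, silt loam) holding two ten-day-old cv. Tebonnet seedlings, maintained on greenhouse benches.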
# [13] = test system: TRZAWR (Wheat, Winter, cv Riband); assay: Preemergence herbicidal evaluation; assay type: in vivo, Triticum aestivum; settings: rated 4-5 weeks after treatment
# Procedure, shortened: as §2
# [14] = test system: CYPIR (Cyperus iria); assay: Flooded paddy, preemergence weed control; assay type: in vivo; settings: rated 3-4 weeks after treatment, 0-9 rating scale
# Procedure, shortened: (§3)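 Greenhouse paddy test, preemergence. Seeds planted in the top 0.5 cm of silt loam soil, which remained flooded at 1.5–3 cm depth. Scored 0-9 by visual comparison with control.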
# [15] = test system: MOOVA (Monochoria vaginalis); assay: Flooded paddy, preemergence weed control; assay type: in vivo, Presl.; settings: rated 3-4 weeks after treatment, 0-9 rating scale
# Procedure, shortened: as §3
# [16] = test system: GLXMAW (Soybean, Williams); assay: Preemergence herbicidal evaluation; assay type: in vivo, Glycine max, (L.) Merr. cv Williams; settings: rated 4-5 weeks after treatment
# [17] = test system: ABUTH (Abutilon theophrasti); assay: Preemergence herbicidal evaluation; assay type: in vivo, Medic.; settings: rated 4-5 weeks after treatment
# [18] = test system: ECHCG (Echinochloa crus-galli); assay: Preemergence herbicidal evaluation; assay type: in vivo, (L.) Beau; settings: rated 4-5 weeks after treatment
# Procedure, shortened: as §2
# [19] = test system: SETVI (Setaria viridis); assay: Preemergence herbicidal evaluation; assay type: in vivo, (L.) Beau; settings: rated 4-5 weeks after treatment
# Procedure, shortened: as §2
# [20] = test system: GLXMAW (Soybean, Williams); assay: Postemergence herbicidal evaluation; assay type: in vivo, Glycine max, (L.) Merr. cv Williams; settings: postemergence
# Procedure, shortened: as §1
compound,measurement,setting,value
"C=CC1COC(c2nsc3ccc(-n4c(=O)cc(C(F)(F)F)n(C)c4=O)cc23)O1 (centres unmarked) [Compound 76, 1-methyl-6-(trifluoromethyl)-3-[3-(4-vinyl-1,3-dioxolan-2-yl)-1,2-benzisothiazol-5-yl]uracil]",IPOHE herbicidal rating,[1]; rate 0.0320 kg/ha,7.0
same,IPOHE herbicidal rating,[1]; rate 0.0620 kg/ha,9.0
same,CHEAL herbicidal rating,[2]; rate 0.0320 kg/ha,9.0
same,CHEAL herbicidal rating,[2]; rate 0.0620 kg/ha,9.0
same,AMBEL herbicidal rating,[3]; rate 0.0320 kg/ha,9.0
same,AMBEL herbicidal rating,[3]; rate 0.0620 kg/ha,9.0
same,CASOB herbicidal rating,[4]; rate 0.0320 kg/ha,4.0
same,CASOB herbicidal rating,[4]; rate 0.0620 kg/ha,5.0
same,ORYSAT herbicidal rating,[5]; rate 0.0320 kg/ha,3.5
same,ORYSAT herbicidal rating,[5]; rate 0.0620 kg/ha,4.0
same,Preemergence herbicidal rating CHEAL,[6]; Rate 0.0620 kg/ha,9.0
same,Preemergence herbicidal rating CHEAL,[6]; Rate 0.1250 kg/ha,9.0
same,Preemergence herbicidal rating CHEAL,[6]; Rate 0.2500 kg/ha,9.0
same,Preemergence herbicidal rating AMBEL,[7]; Rate 0.0620 kg/ha,9.0
same,Preemergence herbicidal rating AMBEL,[7]; Rate 0.1250 kg/ha,9.0
same,Preemergence herbicidal rating AMBEL,[7]; Rate 0.2500 kg/ha,9.0
same,Preemergence herbicidal rating CASOB,[8]; Rate 0.0620 kg/ha,5.0
same,Preemergence herbicidal rating CASOB,[8]; Rate 0.1250 kg/ha,8.5
same,Preemergence herbicidal rating CASOB,[8]; Rate 0.2500 kg/ha,9.0
same,Preemergence herbicidal rating IPOHE,[9]; Rate 0.0620 kg/ha,7.5
same,Preemergence herbicidal rating IPOHE,[9]; Rate 0.1250 kg/ha,9.0
same,Preemergence herbicidal rating IPOHE,[9]; Rate 0.2500 kg/ha,9.0
same,ABUTH herbicidal rating,[10]; rate 0.0320 kg/ha,9.0
same,ABUTH herbicidal rating,[10]; rate 0.0620 kg/ha,9.0
same,Preemergence herbicidal rating ZEAMX,[11]; Rate 0.0620 kg/ha,8.5
same,Preemergence herbicidal rating ZEAMX,[11]; Rate 0.1250 kg/ha,8.5
same,Preemergence herbicidal rating ZEAMX,[11]; Rate 0.2500 kg/ha,9.0
same,"herbicidal rating, ORYSAT (rice tolerance)",[12]; rate 0.0080 kg/ha,2.0
same,"herbicidal rating, ORYSAT (rice tolerance)",[12]; rate 0.0320 kg/ha,3.0
same,"herbicidal rating, ORYSAT (rice tolerance)",[12]; rate 0.1250 kg/ha,9.0
same,Preemergence herbicidal rating TRZAWR,[13]; Rate 0.0620 kg/ha,7.0
same,Preemergence herbicidal rating TRZAWR,[13]; Rate 0.1250 kg/ha,8.0
same,Preemergence herbicidal rating TRZAWR,[13]; Rate 0.2500 kg/ha,8.0
same,"herbicidal rating, CYPIR",[14]; rate 0.0080 kg/ha,7.0
same,"herbicidal rating, CYPIR",[14]; rate 0.0320 kg/ha,8.0
same,"herbicidal rating, CYPIR",[14]; rate 0.1250 kg/ha,9.0
same,"herbicidal rating, MOOVA",[15]; rate 0.0080 kg/ha,9.0
same,"herbicidal rating, MOOVA",[15]; rate 0.0320 kg/ha,9.0
same,"herbicidal rating, MOOVA",[15]; rate 0.1250 kg/ha,9.0
same,Preemergence herbicidal rating GLXMAW,[16]; Rate 0.0620 kg/ha,7.5
same,Preemergence herbicidal rating GLXMAW,[16]; Rate 0.1250 kg/ha,9.0
same,Preemergence herbicidal rating GLXMAW,[16]; Rate 0.2500 kg/ha,9.0
same,Preemergence herbicidal rating ABUTH,[17]; Rate 0.0620 kg/ha,9.0
same,Preemergence herbicidal rating ABUTH,[17]; Rate 0.1250 kg/ha,9.0
same,Preemergence herbicidal rating ABUTH,[17]; Rate 0.2500 kg/ha,9.0
same,Preemergence herbicidal rating ECHCG,[18]; Rate 0.0620 kg/ha,9.0
same,Preemergence herbicidal rating ECHCG,[18]; Rate 0.1250 kg/ha,9.0
same,Preemergence herbicidal rating ECHCG,[18]; Rate 0.2500 kg/ha,9.0
same,Preemergence herbicidal rating SETVI,[19]; Rate 0.0620 kg/ha,9.0
same,Preemergence herbicidal rating SETVI,[19]; Rate 0.1250 kg/ha,9.0
same,Preemergence herbicidal rating SETVI,[19]; Rate 0.2500 kg/ha,9.0
same,GLXMAW herbicidal rating,[20]; rate 0.0320 kg/ha,7.0
same,GLXMAW herbicidal rating,[20]; rate 0.0620 kg/ha,8.0
